Reference: paper PMC7321108, “1-Hydroxyanthraquinones Containing Aryl Substituents as Potent and Selective Anticancer Agents” (Molecules, 2020)

How the values were obtained:
[1] = system: U-87MG glioblastoma cells; experiment: MTT cytotoxicity assay, U-87MG; assay type: cell-based; settings: Homo sapiens, 72 h incubation, mean ± SEM of three experiments, read-out: Cytotoxicity (GI50) against U-87MG
Summary of the method: (§1)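 Seed cells, add test compounds dissolved in DMSO, and incubate 72 h at 37 °C in 5% CO2. Add 1% MTT for four hours, then DMSO for 15 min, and read absorbance at 450 nm. Derive GI50 from three independent experiments.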

[2] = system: MDA-MB-231 breast cancer cells; experiment: MTT cytotoxicity assay, MDA-MB-231; assay type: cell-based; settings: Homo sapiens, 72 h incubation, mean ± SEM of three experiments, read-out: Cytotoxicity (GI50) against MDA-MB-231
Summary of the method: as §1

SNB-19 cells = experiment: DNA synthesis investigation (BrdU/PI flow cytometry), SNB-19; assay type: cell-based, human; settings: SNB-19, treated at GI50 concentration, 24 h, BrdU 30 min
[3] = system: SNB-19 glioblastoma cells; experiment: MTT cytotoxicity assay, SNB-19; assay type: cell-based; settings: Homo sapiens, 72 h incubation, mean ± SEM of three experiments, read-out: Cytotoxicity (GI50) against SNB-19
Summary of the method: as §1

[4] = MTT cytotoxicity assay, normal hTERT-immortalized lung fibroblasts; assay type: cell-based; settings: human, hTERT-immortalized lung fibroblasts (normal cell line), 72 h incubation, mean ± SEM of three experiments, read-out: Cytotoxicity (GI50) against hTERT Lung Fibroblasts
Summary of the method: as §1

[5] = system: LNCAP prostate cancer cells; experiment: MTT cytotoxicity assay, LNCAP; assay type: cell-based, human; settings: Homo sapiens, LNCaP, 72 h, 72 h incubation, mean ± SEM of three experiments, read-out: Cytotoxicity (GI50) against LNCAP
Summary of the method: as §1

DU-145 cells [6] = experiment: DNA synthesis investigation (BrdU/PI flow cytometry), DU-145; assay type: cell-based, human; settings: DU-145, treated at GI50 concentration, 24 h, BrdU 30 min
Experimental: Cell cycle analysis was performed by Flow Cytometry using BrdU and PI staining [63]. For this experiment cells were seeded in 6-well plates (30,000 per plate) and incubate for adhesion for 24 h. […] For the next step the BrdU stock was added at a final concentration of 30 µM and cells were incubated for 30 min. Cells were washed with PBS, harvested using trypsine and resuspended at 0.3 mL of PBS. Permeabilization of cell membrane was performed as follows: 0.7 mL of ice-cold 100% EtOH was added into each sample, mixed gently and incubate at 4 °C for 1 h. Cells were pelleted and supernatant was removed completely. Then 0.5 mL of 2 N HCl/0.5% Triton X-100 was added and samples were incubated 30 min at room temperature. Cells were pelleted again, supernatant was removed. The pellet was resuspended in 0.5 mL of 0.1 M sodium tetraborate for 2 min and cells were pelleted again, washed with 150 µL of PBS/1% BSA and resuspended in 50 µM 0.5% Tween 20/1% BSA/PBS. […] After that the samples were resuspended in 0.5 mL of PBS containing 10 mg/mL RNAse A and 20 mg/mL PI. Samples were incubated at room temperature for 30 min and analyzed immediately or store at 4 °C. CytoFLEX flow cytometer (Beckman Coulter) was used for analysis. The results are presented as a percentage of cell population standing in DNA synthesis process.

DU-145 cells [7] = experiment: Cell cycle analysis by flow cytometry (Hoechst 33342), DU-145; assay type: cell-based, human; settings: DU-145, treated at GI50 concentration, 24 h
Experimental: We have carried out flow cytometric study of compounds 13, 16 and the isomeric compound 25 (Table 4, Figure 4G,H). Concentrations of 16 and 25 were taken as 5.4 and 14.5 μM, respectively, as per cytotoxic studies (Table 1). After examining the data for 13 (Figure 4G, Table 4), a good number of cells are arrested in Sub-G1, G0/G1 and S phase. Biosynthetic activity is very high during Sub-G1 phase; this is probably achieved by enhancing of apoptosis. The isomeric molecule 25 arrest G0/G1 and S phases, i.e., affecting the DNA synthesis/replication mechanism. Similarly, for 25 a different pattern is observed, i.e., variations at S and G2/M phases were observed, in comparison to the control. […] Some difference in the mechanism of operation of 13 and 25 has been observed during the progression of cell cycle like: Sub-G1 phase was highly disturbed by 13 and S and G0/G1 phases were highly disturbed by 25.
For cell cycle analysis cells were seeded in 6-well plates (30,000 per plate) and incubate for adhesion for 24 h. […] Cells were washed with PBS twice, harvested, pelleted and resuspended in 0.5 mL of PBS. For staining the Hoechst 33342 Ready Flow Reagent (Invitrogen) was used according to the instruction. CytoFLEX flow cytometer (Beckman Coulter) was used for analysis. The results are presented as a percentage of cell population standing in different stages of the cell cycle.

pUC19 DNA plasmid = experiment: Gel retardation (electrophoretic mobility shift) assay; assay type: binding; settings: 0.5 µg pUC19 plasmid, 0.025 µM test compound, room temperature 1 h, agarose gel 60 V 4 h
Experimental: The interaction of compounds 13, 15, 16, 23, 25 27, 28, 35, 40 and 44 with DNA was experimentally confirmed by study of the electrophoretic mobility. For this the gel retardation assay was performed. Doxorubicin in different concentration was used as a positive control. In order to avoid destruction of the possible complex of DNA with compounds, the electrophoresis was performed at low voltage. The results are presented at Figure 3.
To study the interaction between test compounds and DNA the electrophoretic mobility shift assay was performed. 0.5 µg of pUC19 plasmid was incubated with 0.025 µM of test compounds at room temperature for 1 h. After that the electrophoresis was performed in agarose gel (1/2%) in TBE buffer (60 V, 4 h). For visualization the gel was staining with ethidium bromide and analyzed with Bio-Rad gel documentation system.

[8] = system: MT-4 cells of T-cellular human leucosis; experiment: MTT cytotoxicity assay, MT-4; assay type: cell-based; settings: MT4, 72 h incubation, mean ± SEM of three experiments, read-out: Cytotoxicity (GI50) against MT-4
Summary of the method: as §1

| melting point | Compound | GI50 [1] | GI50 [2] | Population (% Cell Distribution) DNA Synthesis (SNB-19 cells) | GI50 [3] | GI50 at 72 h [4] | GI50 [5] | Population (% Cell Distribution) DNA Synthesis (DU-145 cells [6]) | Population (% Cell Distribution) G0/G1 (DU-145 cells [7]) | Population (% Cell Distribution) G2/M (DU-145 cells [7]) | Population (% Cell Distribution) S (DU-145 cells [7]) | Population (% Cell Distribution) Sub-G1 (DU-145 cells [7]) | Population (% Cell Distribution) Super-G2 (DU-145 cells [7]) | Retardation of plasmid DNA (electrophoretic mobility) (pUC19 DNA plasmid) | GI50 [8] |
| --- | --- | --- | --- | --- | --- | --- | --- | --- | --- | --- | --- | --- | --- | --- | --- |
| 207.3 °C (dec.) | O=C1c2ccccc2C(=O)c2c(-c3ccccc3)ccc(O)c21 [Compound 13, 1-Hydroxy-4-phenylanthracene-9,10-dione] | > 100 µM | 31.2 ± 1.65 µM | 28.63% | 24.3 ± 1.08 µM | 67.1 ± 8.06 µM | 24 ± 1.47 µM | 6.83% | 28.7% | 6.3% | 28.7% | 34.6% | 1.6% | cause a retardation of plasmid DNA | 71 ± 0.7 µM |
| 213.6 °C (dec.) | COc1cccc(-c2ccc(O)c3c2C(=O)c2ccccc2C3=O)c1OC [Compound 16, 1-(2,3-Dimethoxyphenyl)-4-hydroxyanthracene-9,10-dione] | > 100 µM | 16.5 ± 0.88 µM | 28.67% | 9.7 ± 0.41 µM | 48 ± 3.87 µM | > 100 µM | 27.22% | 44.3% | 7.3% | 30.7% | 15.7% | 2.0% | cause a retardation of plasmid DNA | > 100 µM |
